The values that follow come from patent publication US10766869B2, “Triazoles for the treatment of demyelinating dieases” (Vertex Pharmaceuticals Incorporated, priority 2015, dated 2020).

Where two headings read alike, the source gives them in different places.

For this assay, the system named is primary rat mixed cortical cells. The assay can be described thus: In vitro myelination assay (MBP positive myelin strands, fold myelin pixels above background). Particulars: for fold induction at 1 µM / fold induction at 10 µM: Rattus norvegicus; for fold induction at 10 µM: 10.0 μM compound. In kind it is cell-based. In a few lines:
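Read-out is total MBP-positive myelin strand pixels per well, detected by custom ridge-tracing software and reported as fold over untreated baseline. Primary P1 rat mixed cortical cells received compound (1.0 or 10.0 μM) for 14 days, with medium half-replaced on days 6 and 10. Standard deviation was taken across all replicates.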

Where [1] appears, read: 1.0 μM compound, read-out: Fold myelin pixels above background relative to baseline of no added compound.
Where [2] appears, read: read-out: Fold myelin pixels above background relative to baseline of no added compound.
The mark [3] stands for this setting: 1.0 μM compound, relative to baseline of no added compound, read-out: Fold myelin pixels above background.
Where [4] appears, read: relative to baseline of no added compound, read-out: Fold myelin pixels above background.
[5] abbreviates: 1.0 μM compound, relative to baseline of no added compound, read-out: Fold myelin pixels above background, 1.0 μM.
Where [6] appears, read: relative to baseline of no added compound, read-out: Fold myelin pixels above background, 10.0 μM.

Take `COCC1CCN(c2cc(C(F)(F)F)cc(Nc3ncn(-c4cccc(C(F)F)c4)n3)n2)CC1` [Compound 807, N-[1-[3-(difluoromethyl)phenyl]-1,2,4-triazol-3-yl]-6-[4-(methoxymethyl)-1-piperidyl]-4-(trifluoromethyl)pyridin-2-amine]: the fold induction at 1 µM under setting [1] lay within 1 to 10. Besides, the fold induction at 10 µM under setting [2] was in the range of 1 to 10.

Take `Cc1cc(Nc2ncn(-c3cc(F)cc(F)c3)n2)cc(N2CCCC3COCC32)c1` (stereo not drawn) [Compound 981, N-[3-(3,4,4a,5,7,7a-hexahydro-2H-furo[3,4-b]pyridin-1-yl)-5-methyl-phenyl]-1-(3,5-difluorophenyl)-1,2,4-triazol-3-amine]: the fold induction at 1 µM under setting [1] was 1 to 10. Also, the fold induction at 10 µM under setting [2] was in the range of 10 to 100.

With `Cc1cc(Nc2ncn(-c3cc(F)cc(F)c3)n2)nc(NC2CCOC2)c1` (stereo not drawn) [Compound 614, N6-[1-(3,5-difluorophenyl)-1,2,4-triazol-3-yl]-4-methyl-N2-tetrahydrofuran-3-yl-pyridine-2,6-diamine], under setting [3], the fold induction at 1 µM was 1 to 10. Also, the fold induction at 10 µM under setting [4] lay within 1 to 10.

On to `COc1cc(F)cc(-n2cnc(Nc3cc(C)cc(N4CCN(C5COC5)CC4)c3)n2)c1` [Compound 56, 1-(3-fluoro-5-methoxy-phenyl)-N-[3-methyl-5-[4-(oxetan-3-yl)piperazin-1-yl]phenyl]-1,2,4-triazol-3-amine], for which the fold induction at 1 µM under setting [5] is 100 to 1000. Under setting [6], the fold induction at 10 µM is 100 to 1000.

For `Cc1cc(Nc2cc(C)[nH]n2)cc(Nc2ncn(-c3ccccc3)n2)c1` [Compound 699, 5-methyl-N3-(5-methyl-1H-pyrazol-3-yl)-N1-(1-phenyl-1,2,4-triazol-3-yl)benzene-1,3-diamine], the fold induction at 1 µM under setting [3] lay within 1 to 10. Under setting [4], the fold induction at 10 µM is at most 1.

As to `Cc1cc(Nc2ncn(-c3cc(F)cc(F)c3)n2)cc(N2CCCC2CN2CCOCC2)c1` (stereo not drawn) [Compound 1012, 1-(3,5-difluorophenyl)-N-[3-methyl-5-[2-(morpholinomethyl)pyrrolidin-1-yl]phenyl]-1,2,4-triazol-3-amine], under setting [1], the fold induction at 1 µM lay in the range of 1 to 10. In addition, under setting [2], the fold induction at 10 µM was at most 1.

Turning to `[2H]C1(N2CCN(c3cc(C)cc(Nc4ncn(-c5cc(F)cc(F)c5)n4)c3)CC2)COC1` [Compound 1110, N-[3-[4-(3-deuteriooxetan-3-yl)piperazin-1-yl]-5-methyl-phenyl]-1-(3,5-difluorophenyl)-1,2,4-triazol-3-amine], the fold induction at 1 µM under setting [1] is 1000 to 10000. For the same molecule, the fold induction at 10 µM under setting [2] lay within 1 to 10.

As to `COCC1CCN(c2cc(C)cc(Nc3ncn(-c4ccc(F)c(F)c4)n3)c2)CC1` [Compound 299, 1-(3,4-difluorophenyl)-N-[3-[4-(methoxymethyl)-1-piperidyl]-5-methyl-phenyl]-1,2,4-triazol-3-amine], the fold induction at 1 µM under setting [5] lay in the range of 100 to 1000. For the same molecule, the fold induction at 10 µM under setting [6] lay in the range of 10 to 100.

With `Cc1cc(Nc2ncn(-c3cncc(F)c3)n2)cc(N2CCN(C3COC3)CC2)c1` [Compound 24, 1-(5-fluoro-3-pyridyl)-N-[3-methyl-5-[4-(oxetan-3-yl)piperazin-1-yl]phenyl]-1,2,4-triazol-3-amine], the fold induction at 1 µM under setting [5] was 10 to 100. In addition, the fold induction at 10 µM under setting [6] was 100 to 1000.

With `Cc1cc(Nc2ncn(-c3cc(F)cc(F)c3)n2)cc(NC2CCN(CC3CCCO3)CC2)c1` (stereo not drawn) [Compound 891, N3-[1-(3,5-difluorophenyl)-1,2,4-triazol-3-yl]-5-methyl-N1-[1-(tetrahydrofuran-2-ylmethyl)-4-piperidyl]benzene-1,3-diamine], the fold induction at 1 µM under setting [1] fell in the range of 1 to 10. Further, under setting [2], the fold induction at 10 µM was at most 1.

Consider `Cc1cc(Nc2ncn(-c3cc(F)cc(F)c3)n2)cc(N2CCN3CCC2C3)c1` (stereo not drawn) [Compound 889, N-[3-(1,4-diazabicyclo[3.2.1]octan-4-yl)-5-methyl-phenyl]-1-(3,5-difluorophenyl)-1,2,4-triazol-3-amine], for which the fold induction at 1 µM under setting [1] was 10 to 100. Besides, the fold induction at 10 µM under setting [2] is at most 1.

For `Cc1cc(Nc2ncn(-c3cc(F)cc(F)c3)n2)cc(NC2CCOC(C)(C)C2)c1` (stereo not drawn) [Compound 970, N3-[1-(3,5-difluorophenyl)-1,2,4-triazol-3-yl]-N1-(2,2-dimethyltetrahydropyran-4-yl)-5-methyl-benzene-1,3-diamine], under setting [1], the fold induction at 1 µM lay in the range of 10 to 100. Moreover, the fold induction at 10 µM under setting [2] is at most 1.

In the case of `Cc1cc(Nc2ncn(-c3cc(F)cc(F)c3)n2)cc(NC2(C(=O)N(C)C)CCC2)c1` [Compound 887, 1-[3-[[1-(3,5-difluorophenyl)-1,2,4-triazol-3-yl]amino]-5-methyl-anilino]-N,N-dimethyl-cyclobutanecarboxamide], the fold induction at 1 µM under setting [1] lay in the range of 10 to 100. Besides, the fold induction at 10 µM under setting [2] was 10 to 100.

For the molecule `Cc1cc(Nc2ncn(-c3ccccn3)n2)c(F)c(N2CCN(C3COC3)CC2)c1` [Compound 908, N-[2-fluoro-5-methyl-3-[4-(oxetan-3-yl)piperazin-1-yl]phenyl]-1-(2-pyridyl)-1,2,4-triazol-3-amine], the fold induction at 1 µM under setting [1] fell in the range of 1 to 10. For the same molecule, under setting [2], the fold induction at 10 µM lay in the range of 10 to 100.

Consider `Cc1cc(Nc2ncn(-c3cc(F)cc(F)c3)n2)cc(N2CCN(C3CCN(C)CC3)C(C)C2)c1` (stereo not drawn) [Compound 925, 1-(3,5-difluorophenyl)-N-[3-methyl-5-[3-methyl-4-(1-methyl-4-piperidyl)piperazin-1-yl]phenyl]-1,2,4-triazol-3-amine], for which the fold induction at 1 µM under setting [1] is 1 to 10. The fold induction at 10 µM under setting [2] is at most 1.

Turning to `CCc1cc(Nc2ncn(-c3cc(F)cc(F)c3)n2)cc(N2CC(N3CCOCC3)C2)c1` [Compound 173, 1-(3,5-difluorophenyl)-N-[3-ethyl-5-(3-morpholinoazetidin-1-yl)phenyl]-1,2,4-triazol-3-amine], under setting [5], the fold induction at 1 µM was in the range of 100 to 1000. Moreover, the fold induction at 10 µM under setting [6] is 10 to 100.

For the molecule `Cc1cc(Nc2ncn(-c3ccccc3)n2)c(F)c(OC2CCOC2)c1` (single isomer, unassigned) [Compound 1002, N-(2-fluoro-5-methyl-3-tetrahydrofuran-3-yloxy-phenyl)-1-phenyl-1,2,4-triazol-3-amine], the “Fold myelin pixels above background relative to baseline of no added compound” value (1.0 μM compound) is listed as “+++ (>100 to 1000x)”. Further, the fold induction at 10 µM under setting [2] was 10 to 100.

On to `Cc1cc(Nc2ncn(-c3ccc(F)cc3)n2)cc(N2CCN(C3COC3)CC2)c1` [Compound 622, 1-(4-fluorophenyl)-N-[3-methyl-5-[4-(oxetan-3-yl)piperazin-1-yl]phenyl]-1,2,4-triazol-3-amine], for which, under setting [3], the fold induction at 1 µM is 1 to 10. The fold induction at 10 µM under setting [4] is 1 to 10.

On to `CC(F)(F)c1cc(Nc2ncn(-c3cccc(F)c3)n2)nc(N2CCN(C3COC3)CC2)c1` [Compound 860, 4-(1,1-difluoroethyl)-N-[1-(3-fluorophenyl)-1,2,4-triazol-3-yl]-6-[4-(oxetan-3-yl)piperazin-1-yl]pyridin-2-amine], for which the fold induction at 1 µM under setting [1] was 10 to 100. Also, the fold induction at 10 µM under setting [2] is 1 to 10.

As to `Cc1cc(Nc2ncn(-c3cc(F)cc(F)c3)n2)cc(N2CC3(COC3)C2)c1` [Compound 171, 1-(3,5-difluorophenyl)-N-[3-methyl-5-(6-oxa-2-azaspiro[3.3]heptan-2-yl)phenyl]-1,2,4-triazol-3-amine], under setting [5], the fold induction at 1 µM lay within 10 to 100. In addition, under setting [6], the fold induction at 10 µM is 100 to 1000.

As for `Cc1cc(N2CCN(C3COC3)CC2)cc(Nc2ncn(-c3ccccc3)n2)c1C` [Compound 237, N-[2,3-dimethyl-5-[4-(oxetan-3-yl)piperazin-1-yl]phenyl]-1-phenyl-1,2,4-triazol-3-amine], the fold induction at 1 µM under setting [5] is 1000 to 10000. For the same molecule, under setting [6], the fold induction at 10 µM lay within 100 to 1000.

`Cc1cc(Nc2ncn(-c3cc(F)cc(F)c3)n2)nc(N2CCCC(F)C2)c1` (stereo not drawn) [Compound 568, N-[1-(3,5-difluorophenyl)-1,2,4-triazol-3-yl]-6-(3-fluoro-1-piperidyl)-4-methyl-pyridin-2-amine]: under setting [3], the fold induction at 1 µM lay within 1 to 10. The fold induction at 10 µM under setting [4] was at most 1.

With `CCOC1CCN(c2cc(C)cc(Nc3ncn(-c4cc(F)cc(F)c4)n3)c2)CC1` [Compound 976, 1-(3,5-difluorophenyl)-N-[3-(4-ethoxy-1-piperidyl)-5-methyl-phenyl]-1,2,4-triazol-3-amine], under setting [1], the fold induction at 1 µM was in the range of 1 to 10. The fold induction at 10 µM under setting [2] was 10 to 100.

Take `Cc1cc(Nc2ncn(-c3cccnc3)n2)cc(N2CCN(C)CC2)c1` [Compound 297, N-[3-methyl-5-(4-methylpiperazin-1-yl)phenyl]-1-(3-pyridyl)-1,2,4-triazol-3-amine]: the fold induction at 1 µM under setting [5] lay in the range of 10 to 100. In addition, the fold induction at 10 µM under setting [6] fell in the range of 10 to 100.

For `Cc1cc(Nc2ncn(-c3cc(F)cc(F)c3)n2)cc(N2CCOC(CN3CCN(C)CC3)C2)c1` (stereo not drawn) [Compound 954, 1-(3,5-difluorophenyl)-N-[3-methyl-5-[2-[(4-methylpiperazin-1-yl)methyl]morpholin-4-yl]phenyl]-1,2,4-triazol-3-amine], the fold induction at 1 µM under setting [1] was in the range of 1 to 10. The fold induction at 10 µM under setting [2] was at most 1.

On to `CC(=O)N1CC(Oc2cc(C)c(C)c(Nc3ncn(-c4cc(F)cc(F)c4)n3)c2)C1` [Compound 971, 1-[3-[3-[[1-(3,5-difluorophenyl)-1,2,4-triazol-3-yl]amino]-4,5-dimethyl-phenoxy]azetidin-1-yl]ethanone], for which, under setting [1], the fold induction at 1 µM lay within 1 to 10. Further, under setting [2], the fold induction at 10 µM lay within 1 to 10.

Regarding `Cc1cc(Nc2ncn(-c3cc(F)cc(F)c3)n2)cc(N2CCN(CCN3CCOCC3)CC2)c1` [Compound 593, 1-(3,5-difluorophenyl)-N-[3-methyl-5-[4-(2-morpholinoethyl)piperazin-1-yl]phenyl]-1,2,4-triazol-3-amine], the fold induction at 1 µM under setting [3] was in the range of 1 to 10. Further, the fold induction at 10 µM under setting [4] is at most 1.
